Paper PMC8621208, “Antiseptic 9-Meric Peptide with Potency against Carbapenem-Resistant Acinetobacter baumannii Infection” (International Journal of Molecular Sciences, 2021)
Converted amounts (≈) assume the structure as drawn. Where two headings read alike, the source gives them in different places. Where a SMILES comes first, the peptide text is derived from it. Where no end group is shown, it is not given here. [ ]: non-standard residue; d: D form.

Assays:
P. aeruginosa = assay: MIC, broth dilution; type: cell-based, Pseudomonas aeruginosa KCCM 11328; conditions: 16 h, MH media, read-out: Minimal Inhibitory Concentration (MIC)
Excerpt: (§1) Escherichia coli KCTC 1682 was obtained from the Korean Collection for Type Cultures (KCTC) (Jeongeup-si, Korea), Acinetobacter baumannii KCCM 40203, Pseudomonas aeruginosa KCCM 11328 from the Korea Culture Center of Microorganisms (KCCM) (Seoul, Korea). Klebsiella pneumoniae NCCP 16054 were obtained from the National Culture Collection for Pathogens (NCCP) (Osong, Korea). Additionally, two carbapenem-resistant E. coli (CREC E1 and E2), 11 carbapenem-resistant A. baumannii (CRAB C0–C10) and two carbapenem-resistant K. pneumoniae (CRKP K1 and K2) were isolated from the patients, who presented symptoms and signs of infection at Korea University Anam Hospital (Seoul, Korea) (IRB registration no. 2020AN0157, 4 March 2021). CRAB C0–C10 have the OXA-23 gene with carbapenem-resistance.
(§2) The minimum inhibitory concentrations (MIC) were determined using broth dilution method. Briefly, all the mentioned bacterial strains were grown overnight at 37 °C by Muller–Hinton (MH) media. […] After 16 h incubation, the bacterial growth was read at 600 nm using a SpectraMAX microplate reader (Molecular Devices, San Jose, CA, USA).

A. baumannii [1] = assay: MIC, broth dilution; type: cell-based, Acinetobacter baumannii KCCM 40203; conditions: 16 h, MH media, read-out: Minimal Inhibitory Concentration (MIC)
Excerpt: as §1, §2

K. pneumoniae = assay: microbe, parasite or virus in culture; conditions: 16 h
Excerpt: as §1, §2

CRAB C8 = assay: microbe, parasite or virus in culture; conditions: CRAB C8
Excerpt: as §1, §2

CRAB C1 = assay: microbe, parasite or virus in culture; conditions: CRAB C1
Excerpt: as §1, §2

E. coli [2] = assay: MIC, broth dilution; type: cell-based, Escherichia coli KCTC 1682; conditions: E. coli; 16 h, MH media; read-out: Minimal Inhibitory Concentration (MIC)
Excerpt: as §1, §2

[3] = test system: sheep red blood cells (sRBC); assay: Hemolytic assay; type: cell-based; conditions: 100 μM
Experimental: The peptide-induced toxicity was determined by hemolytic against Sheep red blood cells (sRBC). Briefly, Fresh sRBC were washed at least three times with phosphate-buffered saline (PBS) and the debris were removed by centrifugation (1000× g for 5 min, 4 °C). All the peptides including melittin control (0.2–100 μM) and positive control (1% (v/v) triton X-100) were incubated with 4% (v/v) sRBC for 1 h at 37 °C followed by centrifugation at 1000× g for 5 min. The supernatant was measured at 405 nm using a microplate reader.

CRAB C0 [4] = type: cell-based, carbapenem-resistant A. baumannii; conditions: peptide pre-incubated 6 h at 37 °C
Experimental: (§3) All the peptides at their MICs were pre-incubated with proteolytic enzymes such as trypsin and α-chymotrypsin (10,000:1; peptide: enzyme ratio) for 6 h at 37 °C. Then, 100 μL of peptide-protease cocktail was added to the 100 µL bacterial suspension (E. coli, A. baumannii and CRAB C0, 2 × 10^5 CFU/mL) and further incubated for 16 h at 37 °C. Bacterial suspension without peptide and protease served as negative control. The analysis was repeated at three times using independent experiments, and the degree of bacterial growth was measured at 600 nm using a microplate reader.

CREC E1 = assay: MIC, broth dilution; type: cell-based, carbapenem-resistant E. coli; conditions: read-out: Minimal Inhibitory Concentration (MIC)
Excerpt: as §1, §2

CREC E2 = assay: MIC, broth dilution; type: cell-based, carbapenem-resistant E. coli; conditions: read-out: Minimal Inhibitory Concentration (MIC)
Excerpt: as §1, §2

[5] = test system: human kidney (HK)-2 cells; assay: Cytotoxicity, WST-8 assay; type: cell-based; conditions: 24 h; for Toxicity in HK-2 cells: up to 100 μM
Experimental: (§4) Figure 6 In vitro cytotoxicity of Pro9-3 and their analogues. (A) Dose-response curve represent the hemolytic activity of peptides against sheep red blood cell (sRBC). Concentration-dependent (0–100 μM) toxic effects induced by peptides on (B) RAW 264.7 murine macrophage cells and (C) human kidney (HK)-2 cells for 24 h. Melittin was used as a control. Statistical analysis was performed using two-way analysis of variance (ANOVA) with Dunnett’s comparison test. Values are expressed as mean ± SEM of three independent experiments. * p < 0.05, ** p < 0.01, *** p < 0.001, and ns, non-significant compared with the control.
(§5) RAW 264.7 mouse macrophage cells and Human kidney (HK)-2 cells were obtained from Korean cell line bank (Seoul, Korea) and the cells were maintained in DMEM culture media (Thermo Fischer Scientific Inc., Waltham, MA, USA) supplemented with 10% fetal bovine serum, 1% penicillin/streptomycin at 37 °C in a humidified 5% CO2 incubator. The cytotoxicity of the peptides was analyzed using WST-8 cell proliferation assay (Biomax Co, Ltd., Seoul, Korea), and the experiment was performed according to the kit protocol. Briefly, cells (1 × 10^4) were seeded in 96-well plate and the peptides treatment (0–100 μM) were initiated at 80% confluency and then for 24 h. After incubation, WST-8 reagent was added and the change in absorbance was read at 450 nm against reagent blank, and values are expressed as percent cell survival.

[6] = test system: RAW 264.7 murine macrophage cells; assay: Cytotoxicity, WST-8 assay; type: cell-based, mouse; conditions: 24 h
Experimental: as §4, §5

CRAB C6 = assay: MIC, broth dilution; type: cell-based, carbapenem-resistant A. baumannii; conditions: read-out: Minimal Inhibitory Concentration (MIC)
Excerpt: as §1, §2

CRAB C5 = assay: MIC, broth dilution; type: cell-based, carbapenem-resistant A. baumannii; conditions: read-out: Minimal Inhibitory Concentration (MIC)
Excerpt: as §1, §2

CRAB C9 = assay: MIC, broth dilution; type: cell-based, carbapenem-resistant A. baumannii; conditions: read-out: Minimal Inhibitory Concentration (MIC)
Excerpt: as §1, §2

CRAB C7 = assay: MIC, broth dilution; type: cell-based, carbapenem-resistant A. baumannii; conditions: read-out: Minimal Inhibitory Concentration (MIC)
Excerpt: as §1, §2

CRAB C4 = assay: MIC, broth dilution; type: cell-based, carbapenem-resistant A. baumannii; conditions: read-out: Minimal Inhibitory Concentration (MIC)
Excerpt: as §1, §2

CRAB C2 = assay: MIC, broth dilution; type: cell-based, carbapenem-resistant A. baumannii; conditions: read-out: Minimal Inhibitory Concentration (MIC)
Excerpt: as §1, §2

CRAB C10 = assay: MIC, broth dilution; type: cell-based, carbapenem-resistant A. baumannii; conditions: read-out: Minimal Inhibitory Concentration (MIC)
Excerpt: as §1, §2

CRAB C0 [7] = assay: MIC, broth dilution; type: cell-based, carbapenem-resistant A. baumannii; conditions: read-out: Minimal Inhibitory Concentration (MIC)
Excerpt: as §1, §2

CRAB C3 = assay: MIC, broth dilution; type: cell-based, carbapenem-resistant A. baumannii; conditions: read-out: Minimal Inhibitory Concentration (MIC)
Excerpt: as §1, §2

CRKP K2 = assay: MIC, broth dilution; type: cell-based, carbapenem-resistant K. pneumoniae; conditions: read-out: Minimal Inhibitory Concentration (MIC)
Excerpt: as §1, §2

CRKP K1 = assay: MIC, broth dilution; type: cell-based, carbapenem-resistant K. pneumoniae; conditions: read-out: Minimal Inhibitory Concentration (MIC)
Excerpt: as §1, §2

CRAB C0 outer membrane = assay: Outer membrane permeability, NPN uptake; type: cell-based, carbapenem-resistant A. baumannii
Experimental: The effect of peptides on the disturbance of CRAB C0 outer membrane was analyzed using 1-N-phenylnaphthylamine (NPN, Sigma-Aldrich, St. Louis, MO, USA) uptake assay, as previously described. Briefly, CRAB C0 cell suspensions were mixed with NPN (1 mM) and the background fluorescence was recorded for subtraction (excitation λ = 350 nm, emission λ = 420 nm) using RF-6000PC fluorescent spectrophotometer (Shimadzu Scientific Instruments, Kyoto, Japan). Changes in the NPN fluorescence were recorded after addition of different concentrations of peptides and values are expressed as—fluorescence intensity (A.U.).

E. coli [8] = type: cell-based, Escherichia coli; conditions: peptide pre-incubated 6 h at 37 °C
Experimental: as §3

A. baumannii [9] = type: cell-based, Acinetobacter baumannii; conditions: peptide pre-incubated 6 h at 37 °C
Experimental: as §3

Compound | MIC (P. aeruginosa) | MIC (A. baumannii [1]) | Minimal Inhibitory Concentration (MIC) (CRAB C8) | Minimal Inhibitory Concentration (MIC) (CRAB C1) | MIC (E. coli [2]) | Hemolytic activity [3] | Minimal Inhibitory Concentration (MIC) (CRAB C0 [4]; CRAB C0 + Trypsin) | Minimal Inhibitory Concentration (MIC) (CRAB C0 [4]; CRAB C0 + α-Chymotrypsin) | MIC (CREC E1) | MIC (CREC E2) | MIC (CRAB C6) | MIC (CRAB C5) | MIC (CRAB C9) | MIC (CRAB C7) | MIC (CRAB C4) | MIC (CRAB C2) | MIC (CRAB C10) | MIC (CRAB C0 [7]) | MIC (CRAB C3) | MIC (CRKP K2) | other results
CC[C@@H](C)[C@@H](NC(=O)[C@@H](C)NC(=O)[C@@H](CC(C)C)NC(=O)[C@@H](Cc1c[nH]c2ccccc12)NC(=O)[C@@H](CC(C)C)NC(=O)[C@H](N)CCCNC(=N)N)C(=O)N[C@H](Cc1c[nH]c2ccccc12)C(=O)N[C@H](CCCNC(=N)N)C(=O)N[C@H](CCCNC(=N)N)C(N)=O [Pro9-3D, rlwlaiwrr-NH2] (H-[dR][dL][dW][dL][dA][dI][dW][dR][dR]-NH2) | 8 µM (≈ 10.1 µg/mL) | 4 µM (≈ 5.07 µg/mL) | 8 µM | 8 µM | 8 µM (≈ 10.1 µg/mL) | 1.9% | 4 µM | 4 µM | 8 µM (≈ 10.1 µg/mL) | 8 µM (≈ 10.1 µg/mL) | 8 µM (≈ 10.1 µg/mL) | 8 µM (≈ 10.1 µg/mL) | 8 µM (≈ 10.1 µg/mL) | 8 µM (≈ 10.1 µg/mL) | 8 µM (≈ 10.1 µg/mL) | 8 µM (≈ 10.1 µg/mL) | 8 µM (≈ 10.1 µg/mL) | 4 µM (≈ 5.07 µg/mL) | 8 µM (≈ 10.1 µg/mL) | 8 µM (≈ 10.1 µg/mL) | Minimal Inhibitory Concentration (MIC) (K. pneumoniae): 8 µM; Toxicity in human kidney (HK)-2 cells ([5]; 100 μM): 22.9%; Toxicity in RAW 264.7 cells ([6]; 100 μM): 44.5%; MIC (CRKP K1): 16 µM (≈ 20.3 µg/mL); NPN uptake (outer membrane permeabilization) (CRAB C0 outer membrane): greater NPN uptake than their L-form peptides
RLWLAIWRR-NH2 [Pro9-3] | 64 µM | 16 µM | 16 µM | 16 µM | 16 µM | 2.5% | >64 µM | >64 µM | 16 µM | 16 µM | 16 µM | 16 µM | 16 µM | 16 µM | 16 µM | 16 µM | 16 µM | 8 µM | 16 µM | 64 µM | Minimal Inhibitory Concentration (MIC) (K. pneumoniae): 64 µM; Toxicity in HK-2 cells [5]: neither R-Pro9-3 nor Pro9-3 (parent) showed toxicity; Toxicity in RAW 264.7 cells ([6]; up to 100 μM): neither R-Pro9-3 nor Pro9-3 (parent) showed toxicity; MIC (CRKP K1): 64 µM
RRWIALWLR-NH2 [R-Pro9-3] | 64 µM | 16 µM | 32 µM | 32 µM | 16 µM | 3.4% | 64 µM | 64 µM | 16 µM | 16 µM | 32 µM | 32 µM | 16 µM | 32 µM | 32 µM | 32 µM | 16 µM | 8 µM | 32 µM | 32 µM | Minimal Inhibitory Concentration (MIC) (E. coli [8]; E. coli + Trypsin): >64 µM; Minimal Inhibitory Concentration (MIC) (E. coli [8]; E. coli + α-Chymotrypsin): 64 µM; Minimal Inhibitory Concentration (MIC) (K. pneumoniae; K. pneumoniae, MH media): 32 µM; Toxicity in HK-2 cells [5]: neither R-Pro9-3 nor Pro9-3 (parent) showed toxicity; Toxicity in RAW 264.7 cells ([6]; up to 100 μM): neither R-Pro9-3 nor Pro9-3 (parent) showed toxicity; Minimal Inhibitory Concentration (MIC) (A. baumannii [9]; A. baumannii + Trypsin): >64 µM; Minimal Inhibitory Concentration (MIC) (A. baumannii [9]; A. baumannii + α-Chymotrypsin): >64 µM; MIC (CRKP K1): 32 µM
